Data reported in PubChem BioAssay (NCI).
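All cell lines were grown in 96-well plates and treated with compound for 48 hours. TGI is the concentration that stops growth completely.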

Legend:
Experiment in all cases: NCI-60 cell line screen, 48 h
HCC-2998 colon = tested on: HCC-2998 colon
HL-60(TB) leukemia = tested on: HL-60(TB) leukemia
UO-31 renal = tested on: UO-31 renal
NCI-H226 lung = tested on: NCI-H226 lung
ACHN renal = tested on: ACHN renal
MDA-MB-435 = tested on: MDA-MB-435
RXF 393 renal = tested on: RXF 393 renal
A549 NSCLC = tested on: A549 NSCLC
SNB-19 CNS = tested on: SNB-19 CNS
MALME-3M melanoma = tested on: MALME-3M melanoma
HT29 colon = tested on: HT29 colon
HOP-62 NSCLC = tested on: HOP-62 NSCLC
A498 renal = tested on: A498 renal
PC-3 prostate = tested on: PC-3 prostate
SNB-75 CNS = tested on: SNB-75 CNS
COLO 205 colon = tested on: COLO 205 colon
786-0 renal = tested on: 786-0 renal
SK-MEL-2 melanoma = tested on: SK-MEL-2 melanoma
SF-268 CNS = tested on: SF-268 CNS
U251 CNS = tested on: U251 CNS
BT-549 breast = tested on: BT-549 breast
SF-295 CNS = tested on: SF-295 CNS
MDA-MB-231 breast = tested on: MDA-MB-231 breast
HS 578T breast = tested on: HS 578T breast
M14 melanoma = tested on: M14 melanoma
DU-145 prostate = tested on: DU-145 prostate
OVCAR-4 ovarian = tested on: OVCAR-4 ovarian
SK-OV-3 ovarian = tested on: SK-OV-3 ovarian
NCI-H522 lung = tested on: NCI-H522 lung
RPMI-8226 leukemia = tested on: RPMI-8226 leukemia
SR leukemia = tested on: SR leukemia
HCT-15 colon = tested on: HCT-15 colon
HOP-92 NSCLC = tested on: HOP-92 NSCLC
T-47D breast = tested on: T-47D breast
SK-MEL-28 melanoma = tested on: SK-MEL-28 melanoma
TK-10 renal = tested on: TK-10 renal
IGROV1 ovarian = tested on: IGROV1 ovarian
NCI-H23 lung = tested on: NCI-H23 lung
MDA-N = tested on: MDA-N
SW-620 colon = tested on: SW-620 colon
SK-MEL-5 melanoma = tested on: SK-MEL-5 melanoma
LOX IMVI melanoma = tested on: LOX IMVI melanoma
OVCAR-5 ovarian = tested on: OVCAR-5 ovarian
SN12C renal = tested on: SN12C renal
MCF7 breast = tested on: MCF7 breast
CAKI-1 renal = tested on: CAKI-1 renal
SF-539 CNS = tested on: SF-539 CNS
OVCAR-3 ovarian = tested on: OVCAR-3 ovarian
HCT-116 colon = tested on: HCT-116 colon
EKVX NSCLC = tested on: EKVX NSCLC
UACC-62 melanoma = tested on: UACC-62 melanoma
NCI/ADR-RES ovarian = tested on: NCI/ADR-RES ovarian
KM12 colon = tested on: KM12 colon
UACC-257 melanoma = tested on: UACC-257 melanoma
OVCAR-8 ovarian = tested on: OVCAR-8 ovarian
MOLT-4 leukemia = tested on: MOLT-4 leukemia

Measured: TGI

CC1OC(Oc2c(-c3cc(O)c(O)c(O)c3)oc3cc(O)cc(O)c3c2=O)C(O)C(O)C1O (stereo unspecified)
> 100 µM: HCC-2998 colon | HL-60(TB) leukemia | UO-31 renal | NCI-H226 lung | ACHN renal | MDA-MB-435 | RXF 393 renal | A549 NSCLC | SNB-19 CNS | MALME-3M melanoma | HT29 colon | HOP-62 NSCLC | A498 renal | PC-3 prostate | SNB-75 CNS | COLO 205 colon | 786-0 renal | SK-MEL-2 melanoma | SF-268 CNS | U251 CNS | BT-549 breast | SF-295 CNS | MDA-MB-231 breast | HS 578T breast | M14 melanoma | DU-145 prostate | OVCAR-4 ovarian | SK-OV-3 ovarian | NCI-H522 lung | RPMI-8226 leukemia | SR leukemia | HCT-15 colon | HOP-92 NSCLC | T-47D breast | SK-MEL-28 melanoma | TK-10 renal | IGROV1 ovarian | NCI-H23 lung | MDA-N | SW-620 colon | SK-MEL-5 melanoma | LOX IMVI melanoma | OVCAR-5 ovarian | SN12C renal | MCF7 breast | CAKI-1 renal | SF-539 CNS | OVCAR-3 ovarian | HCT-116 colon | EKVX NSCLC | UACC-62 melanoma | NCI/ADR-RES ovarian | KM12 colon | UACC-257 melanoma | OVCAR-8 ovarian | MOLT-4 leukemia
